Assay results reported in patent US20160113932A1, “TREATMENT OF CANCERS USING PI3 KINASE ISOFORM MODULATORS” (INFINITY PHARMACEUTICALS, INC., priority 2013, published 2016).
In brackets after ≈: the same amount, converted by molar mass. Entries after “also recorded” stand apart in the source; their conditions may differ. Like-named read-outs stand apart in the source and are kept apart here. Marks after values point to notes of the source that are not given here.

Legend:
[1] = test system: PI3K-δ specific basophil activation; test: Anti-fCER1 BAT: PI3K-δ specific basophil activation in human whole blood; type: cell-based; conditions: read-out: Anti-fCER1 BAT (delta) EC50
[2] = Plasma protein binding in vitro, monkey; type: in vitro ADME; conditions: all concentrations tested
[3] = test system: hemodynamic and electrocardiographic parameters; test: Cardiovascular study in instrumented cynomolgus monkey; type: in vivo; conditions: male cynomolgus monkeys
Excerpt: Four non-naive, male monkeys implanted with radiotelemetry transmitters were utilized during the conduct of this study.

human P-glycoprotein = target: T1, human P-glycoprotein (Homo sapiens, UniProt P08183); test: Interaction with human P-glycoprotein in Caco-2 cell monolayers; type: in vitro ADME
T1 construct: assessed in vitro using Caco-2 cell monolayers; endogenous in cells; host or cells: Caco-2 cell monolayers

PI3K δ [4] = target: T2, PI3K δ (Homo sapiens, UniProt O00329); test: PI3K-δ suppression level (IC90) quoted with clinical plasma concentrations
Target sequence in this assay (O00329 whole entry, species assumed): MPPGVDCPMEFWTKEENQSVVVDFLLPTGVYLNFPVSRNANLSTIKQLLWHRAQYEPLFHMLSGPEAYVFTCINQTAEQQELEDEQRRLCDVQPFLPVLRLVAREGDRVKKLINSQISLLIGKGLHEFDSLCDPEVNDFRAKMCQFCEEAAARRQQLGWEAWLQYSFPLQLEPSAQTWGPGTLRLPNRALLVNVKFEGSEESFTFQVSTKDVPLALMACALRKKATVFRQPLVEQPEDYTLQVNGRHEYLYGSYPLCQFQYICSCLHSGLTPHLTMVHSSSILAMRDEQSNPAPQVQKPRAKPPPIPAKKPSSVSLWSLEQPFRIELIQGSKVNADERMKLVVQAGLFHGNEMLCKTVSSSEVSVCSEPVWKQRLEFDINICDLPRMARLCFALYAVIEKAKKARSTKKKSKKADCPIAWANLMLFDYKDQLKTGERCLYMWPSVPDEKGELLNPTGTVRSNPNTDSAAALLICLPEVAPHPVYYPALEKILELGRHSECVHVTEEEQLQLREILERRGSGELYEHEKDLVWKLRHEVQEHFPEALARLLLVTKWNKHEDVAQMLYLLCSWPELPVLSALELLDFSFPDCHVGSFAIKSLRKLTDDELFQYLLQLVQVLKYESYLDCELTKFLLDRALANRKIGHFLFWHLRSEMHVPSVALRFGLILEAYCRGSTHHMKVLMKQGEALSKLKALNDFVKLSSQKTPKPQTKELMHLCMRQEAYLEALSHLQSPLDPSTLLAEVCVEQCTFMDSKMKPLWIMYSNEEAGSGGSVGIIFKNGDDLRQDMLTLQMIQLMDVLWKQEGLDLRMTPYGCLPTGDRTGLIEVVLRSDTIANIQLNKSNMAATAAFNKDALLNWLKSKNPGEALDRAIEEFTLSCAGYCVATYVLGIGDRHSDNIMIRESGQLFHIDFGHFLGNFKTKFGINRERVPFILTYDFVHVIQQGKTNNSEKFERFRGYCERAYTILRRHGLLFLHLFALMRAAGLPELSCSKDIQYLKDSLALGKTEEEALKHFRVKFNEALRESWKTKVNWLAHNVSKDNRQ
Target sequence in this assay (P27986 whole entry partner, species assumed): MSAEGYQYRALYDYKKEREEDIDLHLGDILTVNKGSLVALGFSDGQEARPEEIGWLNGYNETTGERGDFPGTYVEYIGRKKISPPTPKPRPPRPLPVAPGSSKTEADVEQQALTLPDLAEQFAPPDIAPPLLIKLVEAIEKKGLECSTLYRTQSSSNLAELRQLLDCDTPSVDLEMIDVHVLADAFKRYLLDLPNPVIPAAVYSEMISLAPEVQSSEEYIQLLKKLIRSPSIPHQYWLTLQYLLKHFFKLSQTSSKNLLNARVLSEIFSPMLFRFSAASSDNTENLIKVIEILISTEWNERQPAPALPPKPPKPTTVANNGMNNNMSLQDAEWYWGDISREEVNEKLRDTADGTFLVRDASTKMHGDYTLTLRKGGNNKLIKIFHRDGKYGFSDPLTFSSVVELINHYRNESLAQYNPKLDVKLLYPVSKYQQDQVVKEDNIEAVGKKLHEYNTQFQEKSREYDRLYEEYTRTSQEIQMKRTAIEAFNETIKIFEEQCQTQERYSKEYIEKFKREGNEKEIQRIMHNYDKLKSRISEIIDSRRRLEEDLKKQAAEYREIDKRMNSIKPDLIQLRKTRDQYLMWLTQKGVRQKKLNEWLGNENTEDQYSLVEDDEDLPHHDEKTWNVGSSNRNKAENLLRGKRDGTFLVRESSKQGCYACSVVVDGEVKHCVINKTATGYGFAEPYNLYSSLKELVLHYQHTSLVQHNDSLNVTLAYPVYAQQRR

[5] = test system: advanced hematologic malignancies; test: Phase 1 dose-escalation study in advanced hematologic malignancies: clinical response; type: in vivo, human
[6] = Phase 1 study in hematologic malignancies: pharmacokinetics, steady state plasma concentrations; type: in vivo, human
Procedure: PK and PD markers were evaluated after the first dose (e.g., 8 mg BID) and at steady state. PD activity (PI3K inhibition) in whole blood was evaluated using a basophil activation assay which measured reduction in CD63 expression on the surface of basophils following ex vivo stimulation.

Pfeiffer = test: DLBCL cellular growth inhibition assay; type: cell-based; conditions: Homo sapiens
Toledo = test: DLBCL cellular growth inhibition assay; type: cell-based; conditions: Homo sapiens
HH = test: CTCL cytotoxicity, 72 hours; type: cell-based; conditions: HH cells, vs MJ or HuT78
Procedure: (§1) MJ and HuT78 cells were grown in IMDM 20% FBS, and HH cells were grown in RPMI 10% FBS.

HuT78 = test: CTCL cytotoxicity, 72 hours; type: cell-based; conditions: HuT78 cells
Procedure: as §1

MJ = test: CTCL cytotoxicity, 72 hours; type: cell-based; conditions: MJ cells
Procedure: as §1

[7] = test system: pAKT and Ki-67 expression in primary CLL cells; test: CLL cell proliferation with CD40L/IL-2/IL-10, four color FACS; type: cell-based; conditions: Homo sapiens, primary CLL cells stimulated with CD40L/IL-2/IL-10, n=2, read-out: EC50, inhibition of pAKT and Ki-67 expression
Procedure: Generally, CLL cells were seeded and incubated with proliferation cocktail (containing sCD40L, rH-IL 10 and rH-IL 2) in media. Then, four color FACS analysis was performed using antibodies to pAKT, Ki-67, CD19 and CD5.

migration of CLL cells = test: Chemotaxis assay of CLL cells; type: cell-based, human; conditions: range 2-42%; n=8
Excerpt: (FIGS. 35 and 36). […] In addition, this direct inhibitory effect on CLL cells in the lymph nodes could lead to rapid and prolonged responses in cancer patients.

PI3K δ [8] = target: T2, PI3K δ; test: Plasma concentration for suppression of PI3K-δ (PK/PD); design: endogenous in cells; host or cells: RAJI (human Burkitt lymphoma)
Target sequence in this assay (O00329 whole entry): as the sequence (O00329 whole entry, species assumed) above
Target sequence in this assay (P27986 whole entry partner): as the sequence (P27986 whole entry partner, species assumed) above

[9] = CLL/SLL, 16 treated, 11 evaluable
[10] = T-Cell Lymphoma, 7 treated, 6 evaluable

T1 sequence (P08183 whole entry): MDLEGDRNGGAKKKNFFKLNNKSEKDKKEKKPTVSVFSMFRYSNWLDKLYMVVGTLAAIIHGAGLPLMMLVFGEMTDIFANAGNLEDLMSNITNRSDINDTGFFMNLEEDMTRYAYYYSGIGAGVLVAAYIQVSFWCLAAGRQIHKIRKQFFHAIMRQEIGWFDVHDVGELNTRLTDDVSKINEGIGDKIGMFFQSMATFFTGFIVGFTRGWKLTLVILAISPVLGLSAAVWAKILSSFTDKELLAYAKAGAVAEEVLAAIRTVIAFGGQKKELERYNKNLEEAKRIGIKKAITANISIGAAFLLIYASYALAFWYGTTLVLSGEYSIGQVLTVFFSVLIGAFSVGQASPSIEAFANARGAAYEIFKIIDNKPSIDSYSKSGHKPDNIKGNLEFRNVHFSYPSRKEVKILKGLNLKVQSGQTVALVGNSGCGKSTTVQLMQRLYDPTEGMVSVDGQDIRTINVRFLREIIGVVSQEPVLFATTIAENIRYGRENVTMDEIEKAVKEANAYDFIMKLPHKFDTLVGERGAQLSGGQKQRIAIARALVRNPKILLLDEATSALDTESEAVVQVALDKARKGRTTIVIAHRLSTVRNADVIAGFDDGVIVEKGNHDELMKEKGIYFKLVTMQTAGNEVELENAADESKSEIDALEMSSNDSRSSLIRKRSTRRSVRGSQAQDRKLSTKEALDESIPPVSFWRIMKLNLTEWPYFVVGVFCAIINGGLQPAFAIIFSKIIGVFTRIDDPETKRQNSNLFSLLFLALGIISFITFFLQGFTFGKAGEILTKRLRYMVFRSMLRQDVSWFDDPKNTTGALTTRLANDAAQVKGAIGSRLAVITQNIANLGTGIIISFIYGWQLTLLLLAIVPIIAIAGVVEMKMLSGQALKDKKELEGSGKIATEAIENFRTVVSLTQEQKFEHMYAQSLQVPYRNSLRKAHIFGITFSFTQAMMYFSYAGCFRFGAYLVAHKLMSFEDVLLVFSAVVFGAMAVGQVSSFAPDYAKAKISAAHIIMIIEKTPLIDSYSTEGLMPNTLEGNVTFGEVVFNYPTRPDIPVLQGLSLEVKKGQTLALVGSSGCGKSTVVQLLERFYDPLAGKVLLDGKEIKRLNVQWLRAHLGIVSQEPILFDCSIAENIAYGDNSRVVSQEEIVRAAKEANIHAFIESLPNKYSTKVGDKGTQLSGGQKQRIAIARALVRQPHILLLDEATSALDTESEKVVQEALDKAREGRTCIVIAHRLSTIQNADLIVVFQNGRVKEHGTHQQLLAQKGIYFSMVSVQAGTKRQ

For `C[C@H](Nc1ncnc2[nH]cnc12)c1cc2cccc(Cl)c2c(=O)n1-c1ccccc1` [Compound 292], the EC50 [1] was 10 to 100 nM, the “percent free in plasma compared with human plasma” value [2] was “consistently higher” and the “effects on hemodynamic or electrocardiographic parameters” value ([3]; single oral dose of 5, 30, and 150 mg/kg) was “No Compound 292-related effects”. For the same compound, the “waveform abnormalities or arrhythmias” value ([3]; up to 150 mg/kg) was “no waveform abnormalities or arrhythmias”, the P-gp substrate status (human P-glycoprotein) was “is a P-gp substrate” and the “inhibition of active transport of other P-gp substrates” value (human P-glycoprotein) was “has the potential to inhibit”. For the same compound, the IC90 (PI3K δ [4]) was 0.361 µg/mL (≈ 0.866 µM), the “responders responding by first assessment (within about 2 months)” value ([5]; B cell lymphoma, 16 out of 18 responders) was 89% and the “Best Observed Response: CR” value [5, 9] was 0 n. For the same compound, the “Best Observed Response: PR” value [5, 9] was 6 n, the “Time to Response, Median (range)” value [5, 9] was 2.9 (1.8, 5.6) Months and the “Best Observed Response: SD” value ([5]; CLL/SLL, 16 treated, 11 evaluable, four nodal responses) was 4 ^c n. For the same compound, the “Best Observed Response: CR” value ([5]; CTCL, T/E 10/4) was 0 n, the “Best Observed Response: SD” value ([5]; CTCL, T/E 10/4) was 2 n and the “Median Time to Response (range)” value ([5]; CTCL, T/E 10/4) was 1.7 (—) ^ Months. The “Best Observed Response: PR” value ([5]; HL, 3 treated, 2 evaluable) was 0 n, the “Best Observed Response: SD” value ([5]; HL, 3 treated, 2 evaluable) was 0 n and the “Time to Response, Median (range)” value ([5]; HL, 3 treated, 2 evaluable) was 1.7 (1.7, 1.7) Months. For the same compound, the “Best Observed Response: CR” value ([5]; HL, T/E 3/3 (Table 16)) was 1 (33) n(%), the “Best Observed Response: Overall” value ([5]; HL, T/E 3/3 (Table 16)) was 1 (33) n(%) and the “Best Observed Response: PD” value ([5]; HL, T/E 3/3 (Table 16)) was 1 (33) n(%). The “Best Observed Response: PR” value ([5]; HL, T/E 3/3 (Table 16)) was 0 n(%), the “Best Observed Response: SD” value ([5]; HL, T/E 3/3 (Table 16)) was 1 (33) n(%) and the “Median Time to Rsp (Range)” value ([5]; HL, T/E 3/3 (Table 16)) was 1.7 Months. The “Best Observed Response: CR” value ([5]; MCL, 4 treated, 3 evaluable) was 0 n, the “Best Observed Response: PR” value ([5]; MCL, 4 treated, 3 evaluable) was 2 n and the “Best Observed Response: SD” value ([5]; MCL, 4 treated, 3 evaluable) was 0 n. For the same compound, the “Time to Response, Median (range)” value ([5]; MCL, 4 treated, 3 evaluable) was 1.9 (1.9, 1.9) Months, the responses ([5]; MCL, 11 evaluable patients, 8, 15 and 25 mg BID) was 1/1 and the “Best Observed Response: CR” value ([5]; MCL, T/E 9/6 (Table 16)) was 1 (17) n(%). The “Best Observed Response: Overall” value ([5]; MCL, T/E 9/6 (Table 16)) was 4 (67) n(%), the “Best Observed Response: PD” value ([5]; MCL, T/E 9/6 (Table 16)) was 1 (17) n(%) and the “Best Observed Response: PR” value ([5]; MCL, T/E 9/6 (Table 16)) was 3 (50) n(%). The “Best Observed Response: SD” value ([5]; MCL, T/E 9/6 (Table 16)) was 1 (17) n(%), the “Median Time to Rsp (Range)” value ([5]; MCL, T/E 9/6 (Table 16)) was 1.8 (1.6-1.9) Months and the “Best Observed Response: CR” value ([5]; MM, 3 treated, 3 evaluable) was 0 n. The “Best Observed Response: PD” value ([5]; MM, 3 treated, 3 evaluable) was 2 n, the “Best Observed Response: PR” value ([5]; MM, 3 treated, 3 evaluable) was 0 n and the “Best Observed Response: PD” value ([5]; PTCL, T/E 7/5) was 3 n. The “Best Observed Response: SD” value ([5]; PTCL, T/E 7/5) was 0 n, the “Median Time to Response (range)” value ([5]; PTCL, T/E 7/5) was 2.3 (1.9-2.7) Months and the “patients with at least 50% tumor response” value ([5]; T cell lymphoma (2 PTCL and 1 CTCL), CT scans) was 33 % of the patients. For the same compound, the “Best Observed Response: PD” value [5, 10] was 3 n, the “Time to Response, Median (range)” value [5, 10] was 2.4 (1.8, 3.1) Months and the “Best Observed Response: PD” value ([5]; TCL Total, T/E 17/9 (Table 15)) was 4 n. The “Best Observed Response: PR” value ([5]; TCL Total, T/E 17/9 (Table 15)) was 2 n, the “Best Observed Response: SD” value ([5]; TCL Total, T/E 17/9 (Table 15)) was 2 n and the “Median Time to Response (range)” value ([5]; TCL Total, T/E 17/9 (Table 15)) was 1.9 (1.7-2.7) Months. The “Best Observed Response: CR” value ([5]; aNHL, 5 treated, 3 evaluable) was 0 n, the “Best Observed Response: PD” value ([5]; aNHL, 5 treated, 3 evaluable) was 2 n and the “Best Observed Response: PR” value ([5]; aNHL, 5 treated, 3 evaluable) was 0 n. The “Best Observed Response: CR” value ([5]; aNHL, T/E 13/10 (Table 16)) was 0 n(%), the “Best Observed Response: Overall” value ([5]; aNHL, T/E 13/10 (Table 16)) was 0 n(%) and the “Best Observed Response: PD” value ([5]; aNHL, T/E 13/10 (Table 16)) was 6 (60) n(%). The “Best Observed Response: PR” value ([5]; aNHL, T/E 13/10 (Table 16)) was 0 n(%), the “Best Observed Response: SD” value ([5]; aNHL, T/E 13/10 (Table 16)) was 4 (40) n(%) and the “Best Observed Response: PR” value ([5]; iNHL, 17 treated, 13 evaluable) was 7 n. For the same compound, the “Time to Response, Median (range)” value ([5]; iNHL, 17 treated, 13 evaluable) was 1.8 (1.7, 2.8) Months, the “Best Observed Response: CR” value ([5]; iNHL, T/E 26/19 (Table 16)) was 3 (16) n(%) and the “Best Observed Response: MR (Minor Response for Waldenstrom's)” value ([5]; iNHL, T/E 26/19 (Table 16)) was 1 (5) n(%). The “Best Observed Response: Overall” value ([5]; iNHL, T/E 26/19 (Table 16)) was 13 (68) n(%), the “Best Observed Response: PD” value ([5]; iNHL, T/E 26/19 (Table 16)) was 2 (11) n(%) and the “Best Observed Response: PR” value ([5]; iNHL, T/E 26/19 (Table 16)) was 10 (53) n(%). The “Best Observed Response: SD” value ([5]; iNHL, T/E 26/19 (Table 16)) was 3 (16) n(%), the “Median Time to Rsp (Range)” value ([5]; iNHL, T/E 26/19 (Table 16)) was 1.8 (1.7-4.1) Months and the “mean predose steady state plasma concentration” value ([6]; 25 mg BID, C2D1) was 390 ng/mL. The “dose dependence of plasma Cmax and AUC” value ([6]; patients with hematologic malignancies, BID dosing) was “dose-proportional increases; also recorded: dose-proportional PK; also recorded: linear PK profile; also recorded: increases proportionally with doses”, the “time of maximum plasma concentration post-dosing” value ([6]; steady state C2D1, 25 mg and 75 mg BID) was “about 1 hour” and the IC50 (Pfeiffer) was > 50000 nM. The IC50 (Toledo) was > 50000 nM, the “cytotoxicity, sensitivity” value (HH) was “more sensitive” and the “cytotoxicity, sensitivity” value (HuT78) was “medium sensitivity”. The “cytotoxicity, sensitivity” value (MJ) was “resistant”, the EC50 [7] was < 10 nM and the “reduction in migration of CLL cells, % control reduction, median” value (migration of CLL cells) was 23%. The “Any AE” value (25 mg BID (n = 34)) was 27, the “Any AE, Grade 3” value (25 mg BID (n = 34)) was 7 and the “Any AE, Grade 4” value (25 mg BID (n = 34)) was 5. The “New Grade 3 ALT” value (25 mg BID (n = 34)) was 3, the “New Grade 3 ANC” value (25 mg BID (n = 34)) was 2 and the “New Grade 4 ANC” value (25 mg BID (n = 34)) was 4. The “Related AE” value (25 mg BID (n = 34)) was 18, the “Related Grade 3 AE” value (25 mg BID (n = 34)) was 4/4 and the “Related Grade 4 AE” value (25 mg BID (n = 34)) was 4/4. The “new Grade >3 neutropenia” value (20 patients, 8-50 mg BID) was 6 n, the “patients with AEs Grade >3” value (20 patients, 8-50 mg BID) was 7 patients and the “patients with adverse events (AEs)” value (20 patients, 8-50 mg BID) was 13 patients. For the same compound, the “dose limiting toxicity observed to date” value (20 patients, 15 mg dose cohort) was “Grade 4 neutropenia”, the “discontinuations due to treatment related AEs” value (55 patients) was “three” and the DLTs (55 patients, 8-75 mg BID) was “Grade 4 neutropenia (15 mg BID) and Grade 3 cellulitis (wound infection, 75 mg BID)”. The “dose-related trends in related Grade 3 or Grade 4 AEs” value (55 patients, 8-75 mg BID) was “No dose-related trends”, the “Any AE” value (Safety Population (n = 55)) was 46 and the “Any AE, Grade 3” value (Safety Population (n = 55)) was 18. For the same compound, the “Any AE, Grade 4” value (Safety Population (n = 55)) was 8, the “New Grade 3 ALT” value (Safety Population (n = 55)) was 5 and the “New Grade 3 ANC” value (Safety Population (n = 55)) was 10. The “New Grade 4 ANC” value (Safety Population (n = 55)) was 5, the “Related AE” value (Safety Population (n = 55)) was 31 and the “Related Grade 3 AE” value (Safety Population (n = 55)) was 14. The “Related Grade 4 AE” value (Safety Population (n = 55)) was 6, the “Deaths on Study” value (Safety Population (n = 55), all due to disease progression) was 3 n and the IC90 (PI3K δ [8]) was 0.361 µg/mL (≈ 0.866 µM).
